Measured values: PubChem BioAssay AID248 (DTP/NCI, 2004)
Values joined by “and” are separate entries in the source; they are usually repeats but may differ in a detail not shown here. Equal entries are not always repeated. Toxic doses and inconclusive results are not listed. Rule as the data show it: active = T/C of 150% or more; inactive = T/C below 125%.

Tested on: L1210 leukemia ip in BDF1 mice, survival T/C
Assay: NCI In Vivo Anticancer Drug Screen. Data for tumor model L1210 Leukemia (intraperitoneal) in B6D2F1 (BDF1) mice
Settings: endpoint: mean survival time, higher = longer survival
How it was run: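 Value reflects the ratio of survival in compound-treated mice to survival in vehicle-treated controls, with both groups carrying the same transplanted tumor.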

[1] = dose: 25.0 mg/kg/injection, schedule: Q01DX009 (ip), vehicle: saline with Tween-80
[2] = dose: 25.0 mg/kg/injection, schedule: Q04DX003 (ip), vehicle: saline with Tween-80
[3] = dose: 50.0 mg/kg/injection, schedule: Q01DX009 (ip), vehicle: saline with Tween-80
[4] = dose: 100.0 mg/kg/injection, schedule: Q01DX009 (ip), vehicle: saline with Tween-80
[5] = dose: 50.0 mg/kg/injection, schedule: Q01DX001 (ip), vehicle: carboxymethylcellulose (CMC)
[6] = dose: 100.0 mg/kg/injection, schedule: Q01DX001 (ip), vehicle: carboxymethylcellulose (CMC)
[7] = dose: 200.0 mg/kg/injection, schedule: Q01DX001 (ip), vehicle: carboxymethylcellulose (CMC)
[8] = dose: 400.0 mg/kg/injection, schedule: Q01DX001 (ip), vehicle: carboxymethylcellulose (CMC)
[9] = dose: 100.0 mg/kg/injection, schedule: Q01DX001 (ip), vehicle: saline
[10] = dose: 200.0 mg/kg/injection, schedule: Q01DX001 (ip), vehicle: saline
[11] = dose: 400.0 mg/kg/injection, schedule: Q01DX001 (ip), vehicle: saline
[12] = dose: 100.0 mg/kg/injection, schedule: Q04DX003 (ip), vehicle: Klucel (hydroxypropylcellulose) (HPC)
[13] = dose: 200.0 mg/kg/injection, schedule: Q04DX003 (ip), vehicle: Klucel (hydroxypropylcellulose) (HPC)
[14] = dose: 400.0 mg/kg/injection, schedule: Q04DX003 (ip), vehicle: Klucel (hydroxypropylcellulose) (HPC)

Measured: T/C

CCOC(=O)c1ccc(NC(=O)Nc2ccc(NC(C)=O)cc2)cc1
inactive: [1] 89 % of control | dose: 25.0 mg/kg/injection, schedule: Q04DX002 (ip), vehicle: saline with Tween-80 86 % of control | [2] 88 % of control | dose: 50.0 mg/kg/injection, schedule: Q01DX001 (ip), vehicle: saline with Tween-80 88 % of control | [3] 89 % of control | dose: 50.0 mg/kg/injection, schedule: Q04DX002 (ip), vehicle: saline with Tween-80 86 % of control and 88 % of control | dose: 50.0 mg/kg/injection, schedule: Q04DX003 (ip), vehicle: saline with Tween-80 86 % of control | dose: 100.0 mg/kg/injection, schedule: Q01DX001 (ip), vehicle: saline with Tween-80 88 % of control | [4] 91 % of control | dose: 200.0 mg/kg/injection, schedule: Q01DX001 (ip), vehicle: saline with Tween-80 93 % of control | dose: 200.0 mg/kg/injection, schedule: Q01DX009 (ip), vehicle: saline with Tween-80 91 % of control | dose: 200.0 mg/kg/injection, schedule: Q04DX002 (ip), vehicle: saline with Tween-80 99 % of control | dose: 200.0 mg/kg/injection, schedule: Q04DX003 (ip), vehicle: saline with Tween-80 90 % of control | dose: 400.0 mg/kg/injection, schedule: Q04DX002 (ip), vehicle: saline with Tween-80 106 % of control

CC12CCC(C1)C(C)(C)C2OC(=O)c1ccccc1C(=O)O (centres undefined)
inactive: [5] 103 % of control | [6] 113 % of control | [7] 102 % of control | [8] 103 % of control

C=CCNC(=O)c1ccc(C(=O)NCC=C)cc1
inactive: [9] 102 % of control | [10] 102 % of control | [11] 98 % of control

CC(=O)NCc1cc(C)c(C)cc1C
inactive: dose: 100.0 mg/kg/injection, schedule: Q01DX009 (ip), vehicle: Klucel (hydroxypropylcellulose) (HPC) 100 % of control | [12] 101 % of control | dose: 200.0 mg/kg/injection, schedule: Q01DX009 (ip), vehicle: Klucel (hydroxypropylcellulose) (HPC) 104 % of control | [13] 97 % of control | dose: 400.0 mg/kg/injection, schedule: Q01DX009 (ip), vehicle: Klucel (hydroxypropylcellulose) (HPC) 96 % of control | [14] 109 % of control

CC(C)(C)N=Cc1ccccc1O.CC(C)(C)N=Cc1ccccc1O.[Cu]
inactive: dose: 6.25 mg/kg/injection, schedule: Q04DX003 (ip), vehicle: saline with Tween-80 94 % of control | dose: 12.5 mg/kg/injection, schedule: Q04DX003 (ip), vehicle: saline with Tween-80 104 % of control | [2] 96 % of control

Oc1c(-c2ccccn2)cccc1C(F)(F)F
inactive: dose: 12.5 mg/kg/injection, schedule: Q04DX003 (ip), vehicle: Klucel (hydroxypropylcellulose) (HPC) 98 % of control | dose: 25.0 mg/kg/injection, schedule: Q04DX003 (ip), vehicle: Klucel (hydroxypropylcellulose) (HPC) 102 % of control | dose: 50.0 mg/kg/injection, schedule: Q04DX003 (ip), vehicle: Klucel (hydroxypropylcellulose) (HPC) 100 % of control

COc1ccccc1/C=C1\SC(=S)NC1=O
inactive: [5] 92 % of control | [6] 101 % of control | [7] 106 % of control | [8] 90 % of control

Cc1ccc(C)c(Nc2cc(=O)[nH]c(=O)[nH]2)c1
inactive: dose: 100.0 mg/kg/injection, schedule: Q04DX003 (ip), vehicle: gum acacia 93 % of control | dose: 200.0 mg/kg/injection, schedule: Q04DX003 (ip), vehicle: gum acacia 91 % of control | dose: 400.0 mg/kg/injection, schedule: Q04DX003 (ip), vehicle: gum acacia 87 % of control

Nc1nc(N)c(-c2ccc(Cl)cc2)c(C(=O)O)n1
inactive: [1] 90 % of control | [3] 97 % of control | [4] 93 % of control and 103 % of control

CSC(=S)NNC(=O)c1cccc([N+](=O)[O-])c1
inactive: dose: 6.25 mg/kg/injection, schedule: Q04DX003 (ip), vehicle: saline sonified 95 % of control | dose: 12.5 mg/kg/injection, schedule: Q04DX003 (ip), vehicle: saline sonified 100 % of control | dose: 25.0 mg/kg/injection, schedule: Q04DX003 (ip), vehicle: saline sonified 101 % of control

Cc1cc2c(cc1C)N(C(=O)CCl)CCN2C(=O)CCl
inactive: dose: 5.0 mg/kg/injection, schedule: Q01DX Z (ip), vehicle: carboxymethylcellulose (CMC) 97 % of control | dose: 10.0 mg/kg/injection, schedule: Q01DX Z (ip), vehicle: carboxymethylcellulose (CMC) 105 % of control | dose: 20.0 mg/kg/injection, schedule: Q01DX Z (ip), vehicle: carboxymethylcellulose (CMC) 100 % of control | [9] 104 % of control | [10] 98 % of control | [11] 98 % of control

CCOC(=O)C(C)C(=O)c1ccccc1 (centres undefined)
inactive: [5] 107 % of control | [6] 102 % of control | [9] 95 % of control | dose: 100.0 mg/kg/injection, schedule: Q01DX009 (ip), vehicle: acetone 96 % of control | [7] 107 % of control | [10] 94 % of control | dose: 200.0 mg/kg/injection, schedule: Q01DX009 (ip), vehicle: acetone 93 % of control | [8] 107 % of control | [11] 94 % of control | dose: 400.0 mg/kg/injection, schedule: Q01DX009 (ip), vehicle: acetone 98 % of control

CCCCCCCCCCCCCCCCS(=O)(=O)N/N=C/c1ccc([N+](=O)[O-])cc1
inactive: [6] 94 % of control | [7] 87 % of control | [8] 105 % of control

O=C1c2ccccc2-c2nc3ncccc3nc21
inactive: [12] 101 % of control | [13] 98 % of control | [14] 98 % of control

Cc1ccc(C(=O)N/N=C/c2ccccc2O)cc1
inactive: dose: 100.0 mg/kg/injection, schedule: Q04DX002 (ip), vehicle: Klucel (hydroxypropylcellulose) (HPC) 89 % of control | dose: 200.0 mg/kg/injection, schedule: Q04DX002 (ip), vehicle: Klucel (hydroxypropylcellulose) (HPC) 92 % of control | dose: 400.0 mg/kg/injection, schedule: Q04DX002 (ip), vehicle: Klucel (hydroxypropylcellulose) (HPC) 105 % of control

COc1ccc2[nH]c(-c3ccccc3)cc2c1
inactive: [1] 100 % of control | [3] 108 % of control | [4] 101 % of control
